Change in vivo and ED50 data for 18 compounds are collected here from US5164390A, “6-substituted purinyl piperazine derivatives” (Ortho Pharmaceutical Corporation, priority 1991, dated 1992).

Read-outs that look alike come from different tables or passages of the source.

The test system of this assay is Adult mongrel dogs. Kind of assay: Cardiotonic activity: hemodynamic and inotropic responses (MAP, HR, dP/dt, contractile force) in anesthetized dogs, iv infusion. Type of assay: in vivo, mongrel dog. The conditions noted are these: Canis lupus familiaris; for ED50: dose producing a 50% increase above baseline in myocardial contractile force, iv, read-out: contractile force (CF) ED50. The protocol:
Adult mongrel dogs were anesthetized with sodium pentobarbital (45 mg/kg, i.p.) and artificially respired. Mean arterial pressure (MAP) was recorded from a cannulated femoral artery and drugs were infused into a cannulated femoral vein. The arterial pressure pulse was used to trigger a cardiotachometer for determination of heart rate (HR). Left ventricular pressure was measured with a Millar catheter and dP/dtmax was derived. A right thoracotomy was performed and myocardial contractile force (CF) was measured with a Walton Brodie strain gauge sutured to the right ventricle. The ventricular muscle was stretched to produce a baseline tension of 100 g. A standard dose of dopamine (10-15 ug/kg/min for 3 min) was administered to determine myocardial responsiveness to inotropic stimulation.
Test compounds were solubilized in a small volume of DMF diluted to a final concentration of 10% in physiological saline. Alternatively, where possible, a soluble hydrochloride salt was prepared by addition of 0.1N HCl diluted in physiological saline. Vehicles were tested in appropriate volumes and found to exert less than a 5% effect on contractile force. For iv studies, compounds were administered by infusion pump (one drug per animal) at rates of 0.58-2.2 mL/min in three to four stepwise increasing doses. Each dose was infused over 5 min immediately after the effect of the previous dose peaked. MAP, HR, dP/dtmax and CF responses were continuously monitored on a Beckman or Gould recorder and expressed as a percent change from pre-drug control values vs. the cumulative dose of drug administered. For these studies, n represents the number of test animals used.
Quantitation of the inotropic potency was obtained by calculation of the contractile force (CF) ED50. This was defined as the dose of compound that produced a 50% increase above baseline in myocardial contractile force. The value was obtained from three to four point dose-response curves using either graphical estimation (n<3) or linear regression analysis (n≥3). Numbers in parentheses are number of animals screened.

[1] abbreviates: Table 1, 1.875 mg/kg iv, cumulative dose, read-out: CF (myocardial contractile force), % from Control.
[2] abbreviates: Table 1, 1.875 mg/kg iv, cumulative dose, read-out: HR (heart rate), % from Control.
Where [3] appears, read: Table 1, 1.875 mg/kg iv, cumulative dose, read-out: MAP (mean arterial pressure), % from Control.
Where [4] appears, read: Table 1, 1.875 mg/kg iv, cumulative dose, read-out: dPdt (left ventricular dP/dtmax), % from Control.
[5] abbreviates: range in parentheses on next line.
[6] abbreviates: Table 2, 1.875 mpk iv, read-out: CF (myocardial contractile force), percent change from pre-drug control.
The mark [7] stands for this setting: Table 2, 1.875 mpk iv, read-out: HR (heart rate), percent change from pre-drug control.
Setting [8] is: Table 2, 1.875 mpk iv, read-out: MAP (mean arterial pressure), percent change from pre-drug control.
The mark [9] stands for this setting: Table 2, 1.875 mpk iv, read-out: dP/dt (left ventricular dP/dtmax), percent change from pre-drug control.

Regarding `OC(CSc1ncnc2[nH]cnc12)CN1CCN(C(c2ccc(F)cc2)c2ccc(F)cc2)CC1` (stereo not shown) [Example 1, 6-[1-[1-[Bis(4-fluorophenyl)methyl]piperazine-4-yl]-2-hydroxy-3-propanylthio]purine Hemihydrate], the change in vivo at 1.875 mg/kg was 214% under setting [1], 1% under setting [2], -5% under setting [3] and 127% under setting [4]. For the same compound, the ED50 under setting [5] stood at 0.16 mg/kg.

Consider `O[C@H](CSc1ncnc2nc[nH]c12)CN1CCN(C(c2ccc(F)cc2)c2ccc(F)cc2)CC1` [Example 2, (2S)-(+)-6-[1-[1-[Bis(4-fluorophenyl)methyl]piperazin-4-yl]-2-hydroxy-3-propanylthio]purine], for which the change in vivo at 1.875 mg/kg was 212% under setting [1], -6% under setting [2], -13% under setting [3] and 168% under setting [4]. Further, the ED50 under setting [5] was determined as 0.07 mg/kg.

Consider `O[C@@H](CSc1ncnc2nc[nH]c12)CN1CCN(C(c2ccc(F)cc2)c2ccc(F)cc2)CC1` [Example 3, (2R)-(-)-6-[1-[1-[Bis(4-fluorophenyl)methyl]piperazin-4-yl]-2-hydroxy-3-propanylthio]purine], for which the change in vivo at 1.875 mg/kg under setting [1] turned out to be 151%, the change in vivo at 1.875 mg/kg under setting [2] is -8%, the change in vivo at 1.875 mg/kg under setting [3] was -4% and the change in vivo at 1.875 mg/kg under setting [4] stood at 91%. Also, under setting [5], the ED50 was 0.35 mg/kg.

With `OC(CSc1ncnc2[nH]cnc12)CN1CCN(C(c2ccccc2)c2ccccc2)CC1` (stereo not shown) [Example 4, 6-[2-Hydroxy-3-(1-(diphenylmethyl)piperazin-4-yl)propan-1-yl]triopurine Hemihydrate], the change in vivo at 1.875 mg/kg under setting [1] stood at 86%, the change in vivo at 1.875 mg/kg under setting [2] is -1%, the change in vivo at 1.875 mg/kg under setting [3] was -12% and the change in vivo at 1.875 mg/kg under setting [4] worked out at 60%.

As to `OC(CSc1ncnc2[nH]cnc12)CN1CCN(Cc2ccccc2)CC1` (stereo not shown) [Example 5, 6-[1-[1-(Benzyl)piperazin-4-l]-2-hydroxy-3-propanylthio]purine Monomalonate.cndot.5/2 Hydrate], the change in vivo at 1.875 mg/kg by setting is: under setting [1], 43%; under setting [2], 5%; under setting [3], -3%; under setting [4], 58%.

Turning to `OC(CSc1ncnc2[nH]cnc12)CN1CCN(Cc2ccc3c(c2)OCO3)CC1` (stereo not shown) [Example 6, 6-[3-[4-(1,3-Benzodioxol-5-yl)methyl]piperazin-1-yl]-2-hydroxyprop-1-ylthio]purine Sesquihydrate], the change in vivo at 1.875 mg/kg is, setting by setting: under setting [1], 79%; under setting [2], 15%; under setting [3], 4%; under setting [4], 80%.

For the compound `OC(CSc1ncnc2[nH]cnc12)CN1CCN(C(c2ccccc2)c2ccc(Cl)cc2)CC1` (stereo not shown) [Example 7, 6-[1-[1-(4-Chlorobenzhydryl)]piperazin-4-yl]-2-hydroxy-3-propanylthio]purine Monohydrate], the change in vivo at 1.875 mg/kg is, setting by setting: under setting [1], 97%; under setting [2], 0%; under setting [3], 1%; under setting [4], 75%.

Consider `OC(CSc1ncnc2[nH]cnc12)CN1CCN(C(c2ccc(C(F)(F)F)cc2)c2cccc(C(F)(F)F)c2)CC1` (stereo not shown) [Example 10, 6-[1-[1-(3,4'[Bis(trifluoromethylphenyl)methyl])piperazin-4-yl]-2-hydroxy-3-propanylthio]purine], for which the change in vivo at 1.875 mg/kg under setting [1] came to 71%, the change in vivo at 1.875 mg/kg under setting [2] was determined as 0%, the change in vivo at 1.875 mg/kg under setting [3] is 5% and the change in vivo at 1.875 mg/kg under setting [4] came out at 47%.

With `CC(=O)OC(CSc1ncnc2[nH]cnc12)CN1CCN(C(c2ccc(F)cc2)c2ccc(F)cc2)CC1` (stereo not shown) [Example 11, 6-[1-[1-[Bis(4-fluorophenyl)methyl]piperazin-4-yl]-2-acetoxy-3-propanylthio]purine 3/4 Hydrate], the ED50 was found to be 0.45 mg/kg. Also, the change in vivo at 1.875 mg/kg under setting [1] amounted to 145%. Under setting [2], the change in vivo at 1.875 mg/kg was -4%. In addition, under setting [3], the change in vivo at 1.875 mg/kg was -12%. The change in vivo at 1.875 mg/kg under setting [4] stood at 62%.

On to `Fc1ccc(C(c2ccc(F)cc2)N2CCN(CCCSc3ncnc4nc[nH]c34)CC2)cc1` [Example 14, 6-[1-[1-[Bis(4-fluorophenyl)methyl]piperazin-4-yl]-3-propanylthio]purine], for which the change in vivo at 1.875 mg/kg is 38% under setting [1], 2% under setting [2], -6% under setting [3] and 17% under setting [4].

Turning to `OC(CSc1ncnc2[nH]cnc12)CN1CCC(=C(c2ccc(F)cc2)c2ccc(F)cc2)CC1` (stereo not shown) [Example 15, 6-[1-[4-[Bis(4'-fluorophenyl)methylene]-1-piperidinyl]-2-hydroxy-3-propanylthio]purine Hemihydrate], the median effective dose (ED50) is 0.725 mg/kg. The change in vivo at 1.875 mg/kg under setting [1] came out at 87%. For the same compound, the change in vivo at 1.875 mg/kg under setting [2] is -7%. Besides, under setting [3], the change in vivo at 1.875 mg/kg is -14%. Also, under setting [4], the change in vivo at 1.875 mg/kg was found to be 28%.

`OC(CSc1ncnc2[nH]cnc12)CN1CCN(C(c2ccc(Cl)cc2)c2ccc(Cl)cc2)CC1` (stereo not shown) [Example 16, 6-[1-[1-[Bis(4-chlorophenyl)methyl]piperazin-4-yl]-2 hydroxy-3-propanylthio]purine.cndot.5/4 Hydrate]: the 50% effective dose (ED50) amounted to 0.608 mg/kg. The change in vivo at 1.875 mg/kg under setting [1] came out at 151%. Under setting [2], the change in vivo at 1.875 mg/kg was -4%. In addition, the change in vivo at 1.875 mg/kg under setting [3] stood at 9%. Besides, the change in vivo at 1.875 mg/kg under setting [4] came to 99%.

Turning to `OC(COc1ncnc2c1ncn2C1CCCCO1)CN1CCN(C(c2ccc(F)cc2)c2ccc(F)cc2)CC1` (stereo not shown) [Example 17], the change in vivo at 1.875 mg/kg by setting is: under setting [1], 37%; under setting [2], 0%; under setting [3], -13%; under setting [4], 16%.

In the case of `OC(COc1ncnc2[nH]cnc12)CN1CCN(C(c2ccc(F)cc2)c2ccc(F)cc2)CC1` (stereo not shown) [Example 18, 6-[3-[4-Bis(4-fluorophenyl)methyl]piperazin-1-yl-2-hydroxy]propoxypurine], the ED50 was 0.825 mg/kg. Under setting [1], the change in vivo at 1.875 mg/kg is 80%. Also, the change in vivo at 1.875 mg/kg under setting [2] came out at 12%. Besides, under setting [3], the change in vivo at 1.875 mg/kg worked out at 4%. In addition, the change in vivo at 1.875 mg/kg under setting [4] came out at 58%.

`OC(COc1ncnc2c1ncn2C1CCCCO1)CN1CCN(C(c2ccccc2)c2ccccc2)CC1` (stereo not shown) [Example 19]: the change in vivo at 1.875 mg/kg is 43% under setting [1], 3% under setting [2], 2% under setting [3] and 19% under setting [4].

With `OC(COc1ncnc2nc[nH]c12)CN1CCN(C(c2ccccc2)c2ccccc2)CC1` (stereo not shown) [Example 20, 6-[3-[4-(Diphenylmethyl)piperazin-1-yl]-2-hydroxypropoxy]-purine], the change in vivo at 1.875 mg/kg runs as follows: under setting [1], 66%; under setting [2], 2%; under setting [3], 4%; under setting [4], 36%.

Consider `OC(CSc1ncnc2[nH]cnc12)CN1CCN(C(c2cccc(C(F)(F)F)c2)c2cccc(C(F)(F)F)c2)CC1` (stereo not shown) [Example 23, 6-[1-[1-[Bis(3-trifluoromethylphenyl)methyl]piperazin-4-yl]-2-hydroxy-3-propanylthio]purine Hemihydrate], for which the change in vivo at 1.875 mg/kg was 44% under setting [6], -7% under setting [7], 7% under setting [8] and 30% under setting [9].

On to `OC(CSc1ncnc2[nH]c(-c3ccccc3)nc12)CN1CCN(C(c2ccc(F)cc2)c2ccc(F)cc2)CC1` (stereo not shown) [Example 24, 6-[1-[1-[Bis(4-fluorophenyl)methyl]piperazin-4-yl]-2-hydroxy-3-propanylthio]-8-phenylpurine.cndot.1/3Hydrate], for which the change in vivo at 1.875 mg/kg runs as follows: under setting [6], 12%; under setting [7], 4%; under setting [8], -3%; under setting [9], 5%.

By ED50 is commonly meant the dose at which the effect has come halfway, by size or by number of responders.
